Laboratory results reported in US8895588B2, “Pyrazole compound” (Takeda Pharmaceutical Company Limited, priority 2009, dated 2014).

Columns and labels:
HepG2 = assay: ATP content test; format: cell-based, human; details: HepG2, 100 μM, culture for one day, relative value to control (free of compound)
Method: (§1) ATP Content Test Human hepatocellular liver carcinoma cell line HepG2 (ATCC No. HB-8065) was maintained and subcultured at 5% CO2, 37° C. in a Dulbecco's modified Eagle medium (DMEM; Invitrogen) medium containing 10% fetal bovine serum (FBS; TRACE SCIENTIFIC LTD.), 1 mmol/L sodium pyruvate (Invitrogen), 2 mmol/L L-glutamine (Invitrogen), 50 IU/mL penicillin (Invitrogen), 50 μg/mL streptomycin (Invitrogen). Test reagent was prepared to 10 mM with DMSO, and diluted with DMEM medium containing 0.5% FBS, 1 mmol/L sodium pyruvate, 2 mmol/L L-glutamine, 50 IU/ml penicillin, 50 μg/mL streptomycin to the DMSO final concentration of 0.1%. HepG2 (2×10^4 cells/well) was cultured on a 96 well white plate (Costar) together with the test reagent at 5% CO2, 37° C. After culture for one day, the intracellular ATP content was measured with ATPLite™ (PerkinElmer Life Sciences). The results are shown in Table 1 as relative value (%) to the control (free of compound) at 100 μm (n≧3, mean±SD).

H^+/K^+-ATPase = target: T1, H^+/K^+-ATPase (Sus scrofa, UniProt P19156); assay: Proton potassium-adenosine triphosphatase (H+,K+-ATPase) inhibitory activity test; format: biochemical; details: swine gastric mucosa microsomal fraction, pH 6.5, 37° C.
T1 construct: The obtained microsomal fraction was used as proton, potassium-adenosine triphosphatase preparations; from tissue; host or cells: swine stomach, microsomal fraction of gastric mucosa
T1 sequence (P19156 whole entry): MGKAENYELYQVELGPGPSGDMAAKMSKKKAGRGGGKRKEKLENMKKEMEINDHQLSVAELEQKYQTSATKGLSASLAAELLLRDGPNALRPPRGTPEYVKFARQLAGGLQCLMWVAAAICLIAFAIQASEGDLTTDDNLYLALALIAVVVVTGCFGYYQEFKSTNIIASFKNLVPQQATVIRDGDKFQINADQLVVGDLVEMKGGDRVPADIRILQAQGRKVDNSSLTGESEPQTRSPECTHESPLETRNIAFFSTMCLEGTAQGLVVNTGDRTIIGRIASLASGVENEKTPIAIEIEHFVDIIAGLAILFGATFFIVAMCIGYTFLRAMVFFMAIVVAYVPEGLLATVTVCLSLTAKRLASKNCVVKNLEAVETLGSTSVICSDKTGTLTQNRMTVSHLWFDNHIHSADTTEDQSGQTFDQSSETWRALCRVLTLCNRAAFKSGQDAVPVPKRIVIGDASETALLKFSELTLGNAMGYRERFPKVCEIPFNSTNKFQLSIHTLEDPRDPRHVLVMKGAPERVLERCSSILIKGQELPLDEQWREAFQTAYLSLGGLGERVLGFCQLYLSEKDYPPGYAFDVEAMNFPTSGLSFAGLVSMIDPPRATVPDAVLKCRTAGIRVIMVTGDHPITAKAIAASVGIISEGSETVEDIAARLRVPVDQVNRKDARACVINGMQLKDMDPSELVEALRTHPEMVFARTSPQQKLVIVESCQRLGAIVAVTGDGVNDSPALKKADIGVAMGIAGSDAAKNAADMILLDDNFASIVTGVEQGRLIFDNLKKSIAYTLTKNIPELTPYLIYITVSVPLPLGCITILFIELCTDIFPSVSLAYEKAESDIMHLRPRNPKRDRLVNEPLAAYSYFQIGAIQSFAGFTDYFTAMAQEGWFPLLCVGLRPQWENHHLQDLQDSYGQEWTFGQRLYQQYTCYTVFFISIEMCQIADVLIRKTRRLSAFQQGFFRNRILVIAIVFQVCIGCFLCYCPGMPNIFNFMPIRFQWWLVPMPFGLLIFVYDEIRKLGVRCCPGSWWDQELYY
T1 sequence (P18434 whole entry partner): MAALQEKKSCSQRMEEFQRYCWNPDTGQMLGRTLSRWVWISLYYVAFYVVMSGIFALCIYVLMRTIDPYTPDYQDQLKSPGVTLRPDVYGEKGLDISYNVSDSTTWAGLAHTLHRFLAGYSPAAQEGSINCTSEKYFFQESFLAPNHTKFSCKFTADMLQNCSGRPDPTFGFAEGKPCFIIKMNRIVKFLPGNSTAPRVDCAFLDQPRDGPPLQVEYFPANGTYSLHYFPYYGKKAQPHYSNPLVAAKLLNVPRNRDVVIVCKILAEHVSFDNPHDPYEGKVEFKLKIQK
Method: Proton Potassium-Adenosine Triphosphatase (H^+,K^+-ATPase) Inhibitory Activity Test According to the method of Wallmark et al. [Biochim. Biophys. Acta, 728, 31 (1983)], a microsomal fraction of gastric mucosa was prepared from the stomach of swine. First, the stomach was removed, washed with tap water, and immersed in 3 mol/L sodium chloride, and the surface of the mucosa was wiped with a paper towel. The gastric mucosa was removed, minced, and homogenized in a 0.25 mol/L sucrose solution (pH 6.8) containing 1 mmol/L EDTA and 10 mmol/L tris-hydrochloric acid using polytron (Kinematica). The obtained homogenate was centrifuged at 20,000×g for 30 min and the supernatant was centrifuged at 100,000×g for 90 min. The precipitate was suspended in 0.25 mol/L sucrose solution, the suspension was superimposed on a 0.25 mol/L sucrose solution containing 7.5% Ficoll, and centrifuged at 100,000×g for 5 hr. The fraction containing the interface between the both layers was recovered, and centrifugally washed with 0.25 mol/L sucrose solution. The obtained microsomal fraction was used as proton, potassium-adenosine triphosphatase preparations. To 50 mmol/L HEPES-Tris buffer (5 mmol/L magnesium chloride, 10 mmol/L potassium chloride, 10 μmol/L valinomycin, pH=6.5, 40 μL) containing 2.5 μg/mL enzyme preparation based on the protein concentration was added a test compound (5 μL) dissolved in 10% dimethyl sulfoxide solution, and the mixture was incubated at 37° C. for 30 min. A 2 mmol/L adenosine triphosphate tris salt solution (50 mmol/L HEPES-tris buffer (5 mmol/L magnesium chloride, pH 6.5), 5 μL) was added to start an enzyme reaction. The enzyme reaction was performed at 37° C. for 20 min, and then a malachite green solution (a mixture of 0.12% malachite green sulfate (2.5 mol/L) solution, 7.5% ammonium molybdate and 11% Tween 20 at a ratio of 100:25:2, 15 μL) was added to stop the reaction. The reaction mixture was stood at room temperature for 15 min, and the resulting reaction product of inorganic phosphorus and malachite green was measured by colorimetric quantification at a wavelength of 610 nm. In addition, the amount of inorganic phosphoric acid in a reaction solution free of potassium chloride was also measured in the same manner, and the value was extracted from that in the presence of potassium chloride, whereby the proton, potassium-adenosine triphosphatase activity was measured. The inhibitory rate (%) was determined from the activity value of the control and that at each concentration of the test compound, and 50% inhibitory concentration (IC50) to proton, potassium-adenosine triphosphatase was determined.

anesthetized rat = assay: Histamine-stimulated acid secretion suppression test using anesthetized rat; format: in vivo; details: 1 mg/kg i.v., anesthetized SD rat, 3 hr after histamine
Method: Histamine-Stimulated Acid Secretion Suppression Test Using Anesthetized Rat 7-Week-old Jcl: male SD rats were fasted for about 24 hr and used for the experiment. Under urethane (1.2 g/kg, i.p.) anesthesia, the abdomen was incised along the middle-spinal line and the pyloric ring was ligated. Test compound (1 mg/kg) was intravenously administered, the abdominal incision was sutured, and histamine dihydrochloride (30 mg/kg/10 mL) dissolved in physiological saline was subcutaneously administered. After 3 hr from histamine administration, the rats were killed with carbon dioxide gas. The stomach was isolated and the accumulated gastric fluid was collected. The gastric fluid amount was measured and the acid level was measured using acid titration apparatus COM-555 (HIRANUMA SANGYO Co., Ltd.), and the product thereof was taken as the acid secretion level. The acid secretion suppressive rate of the test compound was determined from the comparison with control.

Caspase-3/7 = Caspase-3/7 activity test; format: cell-based, human; details: HepG2, 100 μM, culture for one day, relative to staurosporine maximum as 100%, no test reagent as 0%
Method: as §1, with “Human” for “ATP Content Test Human”, “mean±SD). Caspase-3/7 Activity Test The cells were cultured for one day according to a method similar to the method of Experimental Example 3, and the intracellular Caspase-3/7 activity was measured by Caspase-Glo 3/7 Assay (Promega). The results are shown in Table 1 as relative activity (%) of each test reagent when the maximum value of Caspase-3/7 activity on exposure to staurosporine as 100%, and activity without addition of test reagent as 0% (n≧3, mean±SD).” for “mean±SD).”

CNCc1cc(S(=O)(=O)c2cccc(C#N)c2)n(-c2cccnc2F)n1.Cl [Example 4, 3-({1-(2-fluoropyridin-3-yl)-3-[(methylamino)methyl]-1H-pyrazol-5-yl}sulfonyl)benzonitrile hydrochloride]
ATP content (%, 100 μM) (HepG2): 98.5% | IC50 (H^+/K^+-ATPase): 230 nM | acid secretion inhibitory rate (%, 1 mg/kg, intravenous administration, rat) (anesthetized rat): 99% | Caspase-3/7 activity (%, 100 μM) (Caspase-3/7): 1.0%

CNCc1cc(S(=O)(=O)c2ccc(F)cc2)n(-c2cccnc2F)n1.Cl [Example 1, 1-{5-[(4-fluorophenyl)sulfonyl]-1-(2-fluoropyridin-3-yl)-1H-pyrazol-3-yl}-N-methylmethanamine hydrochloride]
ATP content (%, 100 μM) (HepG2): 95.9% | IC50 (H^+/K^+-ATPase): 120 nM | acid secretion inhibitory rate (%, 1 mg/kg, intravenous administration, rat) (anesthetized rat): 98% | Caspase-3/7 activity (%, 100 μM) (Caspase-3/7): 0.1%

CNCc1cc(S(=O)(=O)c2ccc(OC)cc2)n(-c2cccnc2F)n1.Cl [Example 2, 1-{1-(2-fluoropyridin-3-yl)-5-[(4-methoxyphenyl)sulfonyl]-1H-pyrazol-3-yl}-N-methylmethanamine hydrochloride]
IC50 (H^+/K^+-ATPase): 350 nM | acid secretion inhibitory rate (%, 1 mg/kg, intravenous administration, rat) (anesthetized rat): 82%

CNCc1cc(S(=O)(=O)c2cccc(C)c2)n(-c2cccnc2F)n1.Cl [Example 3, 1-{1-(2-fluoropyridin-3-yl)-5-[(3-methylphenyl)sulfonyl]-1H-pyrazol-3-yl}-N-methylmethanamine hydrochloride]
ATP content (%, 100 μM) (HepG2): 90.1% | IC50 (H^+/K^+-ATPase): 88 nM | acid secretion inhibitory rate (%, 1 mg/kg, intravenous administration, rat) (anesthetized rat): 95% | Caspase-3/7 activity (%, 100 μM) (Caspase-3/7): −0.2%
